Maximum recommended daily dose (mmol/kg-bw/day) data for 64 molecules are collected here from PubChem BioAssay AID1195 (EPA DSSTox, 2008).

This series relates to human maximum recommended daily dose, FDA database. Briefly: DSSTox (FDAMDD) FDA Maximum (Recommended) Daily Dose Database. The settings on record: active compounds read low. In short, it runs like this: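 MRDD values come from clinical trials with daily oral dosing, usually for 3–12 months, for the average adult, in mg/day converted to mg/kg-bw/day assuming 60 kg. Antineoplastic mg/m2 doses are divided by 37. Activity score maps log10(1/MRDD mmol) onto 1–100.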

Where [1] appears, read: TherapeuticCategory: antibacterial.
Setting [2] is: TherapeuticCategory: antineoplastic.
[3] abbreviates: TherapeuticCategory: diagnostic aid.
Where [4] appears, read: TherapeuticCategory: glucocorticoid.

In the case of `NC[C@H]1O[C@H](O[C@H]2[C@H](O)[C@@H](O[C@H]3O[C@H](CO)[C@@H](O)[C@H](N)[C@H]3O)[C@H](N)C[C@@H]2N)[C@H](N)C[C@@H]1O`, the maximum recommended daily dose (mmol/kg-bw/day) under setting [1] is 0.0193.

Regarding `CC(C)CCON=O`, under “TherapeuticCategory: none”, the maximum recommended daily dose (mmol/kg-bw/day) was 0.0427.

Regarding `Cc1ccc(/C(=C\CN2CCCC2)c2cccc(/C=C/C(=O)O)n2)cc1`, the maximum recommended daily dose (mmol/kg-bw/day) (TherapeuticCategory: antihistaminic) was 0.00153.

Turning to `COc1ccc(C[C@@H](C)NC[C@H](O)c2ccc(O)c(NC=O)c2)cc1`, where the note is “TherapeuticCategory: antiasthmatic”, the maximum recommended daily dose (mmol/kg-bw/day) is 0.00775.

On to `Nc1ccc(C(=O)O)c(O)c1`, for which, under setting [1], the maximum recommended daily dose (mmol/kg-bw/day) is 1.31.

As for `Cc1oncc1C(=O)Nc1ccc(C(F)(F)F)cc1`, the maximum recommended daily dose (mmol/kg-bw/day) (TherapeuticCategory: antirheuematic, immunosuppressant) is 0.00123.

For `CCCC(C)C1(CC)C(=O)NC(=S)NC1=O` (centres undefined), the maximum recommended daily dose (mmol/kg-bw/day) (TherapeuticCategory: short acting anesthetic) was 0.0172.

Take `Nc1nc(=S)c2[nH]cnc2[nH]1`: the maximum recommended daily dose (mmol/kg-bw/day) under setting [2] is 0.0324.

On to `COc1ccc(/C=C/C(=O)Nc2ccccc2C(=O)O)cc1OC`, for which the maximum recommended daily dose (mmol/kg-bw/day) (TherapeuticCategory: antiallergic) was 0.0153.

Consider `CCOC(=O)CCCCCCCCC(C)c1ccc(I)cc1` (centres undefined), for which the maximum recommended daily dose (mmol/kg-bw/day) under setting [3] is 0.3.

Turning to `O=C(O)c1cccnc1`, where the note is “TherapeuticCategory: vitamin”, the maximum recommended daily dose (mmol/kg-bw/day) was 0.102.

As to `CC(=O)CC(c1ccc([N+](=O)[O-])cc1)c1c(O)c2ccccc2oc1=O` (centres undefined), the maximum recommended daily dose (mmol/kg-bw/day) (TherapeuticCategory: anticoagulant) was 0.000566.

Take `O=C(O)CN(CCN(CC(=O)O)CC(=O)O)CCN(CC(=O)O)CC(=O)O`: where the note is “TherapeuticCategory: chelating agent”, the maximum recommended daily dose (mmol/kg-bw/day) is 0.0425.

On to `CCCC(=O)c1ccc2c(c1)N(CCCN1CCN(C)CC1)c1ccccc1S2`, for which the maximum recommended daily dose (mmol/kg-bw/day) (TherapeuticCategory: antipsychotic) is 0.00408.

For `COc1ccc([C@@H]2Sc3ccccc3N(CCN(C)C)C(=O)[C@@H]2OC(C)=O)cc1`, under “TherapeuticCategory: antianginal”, the maximum recommended daily dose (mmol/kg-bw/day) is 0.0193.

As to `CC(N)Cc1ccccc1` (centres undefined), the maximum recommended daily dose (mmol/kg-bw/day) (TherapeuticCategory: CNS stimulant, anorexic) was 0.0074.

Take `CC(=O)N(CC(O)CO)c1c(I)c(C(=O)NCC(O)CO)c(I)c(C(=O)NCC(O)CO)c1I` (centres undefined): under setting [3], the maximum recommended daily dose (mmol/kg-bw/day) was 0.134.

For the molecule `CC(=O)OCC(=O)[C@@]1(O)CC[C@H]2[C@@H]3C[C@H](C)C4=CC(=O)C=C[C@]4(C)[C@H]3[C@@H](O)C[C@@]21C`, the maximum recommended daily dose (mmol/kg-bw/day) under setting [4] is 0.01.

With `CCN(CC)C(C)C(=O)c1ccccc1` (centres undefined), the maximum recommended daily dose (mmol/kg-bw/day) (TherapeuticCategory: anorexic) was 0.00609.

As to `O=C(O)[C@H](O)[C@@H](O)C(=O)O`, the maximum recommended daily dose (mmol/kg-bw/day) (TherapeuticCategory: none) is 0.2.

Take `Cc1ccc(C(=O)Oc2ccc(C(O)CNC(C)(C)C)cc2OC(=O)c2ccc(C)cc2)cc1` (centres undefined): where the note is “TherapeuticCategory: bronchodilator”, the maximum recommended daily dose (mmol/kg-bw/day) is 8.02e-05.

With `NC(N)=NC(N)=NCCc1ccccc1`, under “TherapeuticCategory: antidiabetic”, the maximum recommended daily dose (mmol/kg-bw/day) was 0.00814.

Consider `CN[C@@H]1[C@H](O[C@H]2[C@H](O[C@H]3[C@H](O)[C@@H](O)[C@H](N=C(N)N)[C@@H](O)[C@@H]3N=C(N)N)O[C@@H](C)[C@]2(O)CO)O[C@@H](CO)[C@H](O)[C@H]1O`, for which the maximum recommended daily dose (mmol/kg-bw/day) under setting [1] is 0.0286.

Turning to `COc1cc(NC(C)CCCN)c2ncccc2c1` (centres undefined), the maximum recommended daily dose (mmol/kg-bw/day) (TherapeuticCategory: antimalarial) is 0.00289.

Consider `CN(C)/N=N/c1nc[nH]c1C(N)=O`, for which, under setting [2], the maximum recommended daily dose (mmol/kg-bw/day) is 0.0247.

In the case of `CC(=O)Oc1ccccc1C(=O)O`, the maximum recommended daily dose (mmol/kg-bw/day) (TherapeuticCategory: analgesic, antipyretic, anti inflammatory) is 0.37.

With `CN1C(=O)CC(C)(c2ccccc2)C1=O` (centres undefined), the maximum recommended daily dose (mmol/kg-bw/day) (TherapeuticCategory: anticonvulsant) is 0.0984.

Take `COc1cccc2c1C(=O)c1c(O)c3c(c(O)c1C2=O)C[C@@](O)(C(C)=O)C[C@@H]3O[C@H]1C[C@H](N)[C@H](O)[C@H](C)O1`: the maximum recommended daily dose (mmol/kg-bw/day) under setting [2] is 0.00205.

Consider `C[C@]12CC[C@@H]3c4ccc(O)cc4CC[C@H]3[C@@H]1CC[C@@H]2OC(=O)CCC1CCCC1`, for which the maximum recommended daily dose (mmol/kg-bw/day) (TherapeuticCategory: estrogen) was 0.00126.

Turning to `CCS(=O)(=O)CCn1c([N+](=O)[O-])cnc1C`, the maximum recommended daily dose (mmol/kg-bw/day) (TherapeuticCategory: antiprotozoal, antiamebic) was 0.135.

As to `CN1CCC(=C2c3ccccc3CCc3sccc32)CC1`, the maximum recommended daily dose (mmol/kg-bw/day) (TherapeuticCategory: anabolic, antidepressant, serotonin inhibitor) is 0.000169.

On to `OC1OC[C@@H](O)[C@H](O)[C@H]1O` (some centres undefined), for which the maximum recommended daily dose (mmol/kg-bw/day) (TherapeuticCategory: intestinal function diagnostic aid) is 2.78.

For the molecule `CC[C@@H](CO)NC(=O)[C@@H]1C=C2c3cccc4c3c(cn4C)C[C@H]2N(C)C1`, under “TherapeuticCategory: antimigraine”, the maximum recommended daily dose (mmol/kg-bw/day) is 0.000283.

Take `C[C@H](CCC(=O)O)[C@H]1CC[C@H]2[C@@H]3C(=O)C[C@@H]4CC(=O)CC[C@]4(C)[C@H]3CC(=O)[C@]12C`: the maximum recommended daily dose (mmol/kg-bw/day) (TherapeuticCategory: choleretic) was 0.0932.

`CN1CCN(CCCN2c3ccccc3Sc3ccc(Cl)cc32)CC1`: the maximum recommended daily dose (mmol/kg-bw/day) (TherapeuticCategory: antiemetic) is 0.00447.

In the case of `O=C(NCC1CCCCN1)c1cc(OCC(F)(F)F)ccc1OCC(F)(F)F` (centres undefined), under “TherapeuticCategory: antiarrhythmic”, the maximum recommended daily dose (mmol/kg-bw/day) is 0.0121.

Take `CCN(CC)CCNc1ccc(CO)c2sc3ccccc3c(=O)c12`: the maximum recommended daily dose (mmol/kg-bw/day) (TherapeuticCategory: antihelmintic) is 0.0281.

Regarding `C/C=C(/CC[C@@H](C)[C@H]1CC[C@H]2C3=CC[C@H]4[C@H](C)[C@@H](O)CC[C@]4(C)[C@H]3CC[C@]12C)C(C)C`, for the setting “TherapeuticCategory: anticholinesteremic”, the maximum recommended daily dose (mmol/kg-bw/day) is 0.234.

For the molecule `Oc1c(I)cc(Cl)c2cccnc12`, the maximum recommended daily dose (mmol/kg-bw/day) (TherapeuticCategory: topical anti infective, antiamebic) was 0.0818.

Turning to `CCOC(=O)c1cncn1C(C)c1ccccc1` (centres undefined), under “TherapeuticCategory: anticholinergic”, the maximum recommended daily dose (mmol/kg-bw/day) was 0.00246.

For the molecule `C[C@H]1C[C@H]2[C@@H]3CCC4=CC(=O)C=C[C@]4(C)[C@H]3C(=O)C[C@]2(C)[C@@]1(O)C(=O)CO`, the maximum recommended daily dose (mmol/kg-bw/day) under setting [4] was 0.00215.

Regarding `Clc1ccc2c(c1)C(c1ccccc1)=NCc1nncn1-2`, for the setting “TherapeuticCategory: sedative, hypnotic”, the maximum recommended daily dose (mmol/kg-bw/day) is 0.000113.

For the molecule `CN[C@H]1CC[C@@H](c2ccc(Cl)c(Cl)c2)c2ccccc21`, the maximum recommended daily dose (mmol/kg-bw/day) (TherapeuticCategory: antidepressant) is 0.0109.

With `CCCCC[C@H](O)/C=C/[C@@H]1[C@H]2C/C(=C/CCCC(=O)O)O[C@H]2C[C@H]1O`, where the note is “TherapeuticCategory: platelet aggregation inhibitor”, the maximum recommended daily dose (mmol/kg-bw/day) was 2.84e-08.

Turning to `CCOC(=O)CCC(=O)O[C@H]1[C@H](O[C@@H]2[C@@H](C)[C@H](O[C@H]3C[C@@](C)(OC)[C@@H](O)[C@H](C)O3)[C@@H](C)C(=O)O[C@H](CC)[C@@](C)(O)[C@H](O)[C@@H](C)C(=O)[C@H](C)C[C@@]2(C)O)O[C@H](C)C[C@@H]1N(C)C`, the maximum recommended daily dose (mmol/kg-bw/day) under setting [1] is 0.0774.

On to `CC(=O)OCC(=O)[C@@]1(O)CC[C@H]2[C@@H]3CCC4=CC(=O)C=C[C@]4(C)[C@H]3[C@@H](O)C[C@@]21C`, for which, under setting [4], the maximum recommended daily dose (mmol/kg-bw/day) was 0.00827.

On to `CC(=O)N(c1onc(C)c1C)S(=O)(=O)c1ccc(N)cc1`, for which the maximum recommended daily dose (mmol/kg-bw/day) under setting [1] is 0.216.

As for `CCN(CC)CCNC(=O)c1cc(S(C)(=O)=O)ccc1OC`, the maximum recommended daily dose (mmol/kg-bw/day) (TherapeuticCategory: antidyskinetic) was 0.0203.

With `C#C[C@]1(O)CC[C@H]2[C@@H]3CCC4=C[C@@H](O)CC[C@@H]4[C@H]3CC[C@@]21C`, under “TherapeuticCategory: progestogen”, the maximum recommended daily dose (mmol/kg-bw/day) is 5.56e-05.

With `O=C(O)C(O)c1ccccc1` (centres undefined), the maximum recommended daily dose (mmol/kg-bw/day) (TherapeuticCategory: urinary antiseptic) was 0.438.

On to `CO[C@@H]1[C@@H](OC(N)=O)[C@@H](O)[C@H](Oc2ccc3c(O)c(NC(=O)c4ccc(O)c(CC=C(C)C)c4)c(=O)oc3c2C)OC1(C)C`, for which the maximum recommended daily dose (mmol/kg-bw/day) under setting [1] was 0.0394.

For the molecule `C[C@@H]1C[C@H]2[C@@H]3C[C@H](F)C4=CC(=O)C=C[C@]4(C)[C@H]3[C@@H](O)C[C@]2(C)[C@@]1(O)C(=O)CO`, the maximum recommended daily dose (mmol/kg-bw/day) under setting [4] was 0.00102.

`CNC(C)CCC=C(C)C` (centres undefined): the maximum recommended daily dose (mmol/kg-bw/day) (TherapeuticCategory: adrenergic, bronchodilator, mydriatic, antiglaucoma) was 0.0384.

Take `NC(=O)CS(=O)C(c1ccccc1)c1ccccc1` (centres undefined): under “TherapeuticCategory: CNS stimulant, adrenergic”, the maximum recommended daily dose (mmol/kg-bw/day) is 0.0122.

For the molecule `CC1(C)O[C@@H]2[C@@H](CO[C@@]3(COS(N)(=O)=O)OC(C)(C)O[C@@H]23)O1`, under “TherapeuticCategory: antiepileptic”, the maximum recommended daily dose (mmol/kg-bw/day) was 0.0197.

As to `CC(O)C(=O)O` (centres undefined), the maximum recommended daily dose (mmol/kg-bw/day) (TherapeuticCategory: acidulant) was 1.11.

With `Nc1c(N=Nc2ccc(-c3ccc(N=Nc4cc(S(=O)(=O)O)c5ccccc5c4N)cc3)cc2)cc(S(=O)(=O)O)c2ccccc12`, the maximum recommended daily dose (mmol/kg-bw/day) under setting [3] was 0.00538.

Consider `CO/N=C(/C(=O)N[C@@H]1C(=O)N2C(C(=O)OC(C)OC(=O)C(C)(C)OC)=C(COC(N)=O)CS[C@H]12)c1ccco1` (some centres undefined), for which the maximum recommended daily dose (mmol/kg-bw/day) under setting [1] was 0.0294.

For the molecule `CC(=O)Nc1c(I)c(C(=O)N[C@H]2C(O)O[C@H](CO)[C@@H](O)[C@@H]2O)c(I)c(N(C)C(C)=O)c1I` (some centres undefined), the maximum recommended daily dose (mmol/kg-bw/day) under setting [3] is 0.132.

On to `C=C1c2cccc(O)c2C(O)=C2C(=O)[C@]3(O)C(O)=C(C(N)=O)C(=O)[C@@H](N(C)C)[C@@H]3[C@@H](O)[C@H]12`, for which, under setting [1], the maximum recommended daily dose (mmol/kg-bw/day) is 0.0339.

For the molecule `CC(=O)OCC(CCn1cnc2cnc(N)nc21)COC(C)=O`, the maximum recommended daily dose (mmol/kg-bw/day) (TherapeuticCategory: antiviral) is 0.0778.

`CC(C)[C@H](N)C(=O)OCCOCn1cnc2c(=O)[nH]c(N)nc21`: the maximum recommended daily dose (mmol/kg-bw/day) (TherapeuticCategory: antiviral) is 0.154.

For the molecule `CCOC(=O)[C@]1(c2ccccc2)CCC=C[C@H]1N(C)C`, the maximum recommended daily dose (mmol/kg-bw/day) (TherapeuticCategory: narcotic analgesic) is 0.0122.

For the molecule `CC[C@H]1OC(=O)[C@H](C)[C@@H](O[C@H]2C[C@@](C)(OC)[C@@H](O)[C@H](C)O2)[C@H](C)[C@@H](O[C@@H]2O[C@H](C)C[C@H](N(C)C)[C@H]2OC(C)=O)[C@](C)(O)C[C@@H](C)C(=O)[C@H](C)[C@@H](O)[C@]1(C)O`, under setting [1], the maximum recommended daily dose (mmol/kg-bw/day) was 0.0629.
